Measured values reported in patent publication US20080200337A1, “Mixed herbicide compositions for paddy field” (Bayer CropScience, priority 2007, published 2008).

Assays:
Assay type in all cases: in vivo
[1] = tested on: submerged direct sown paddy (RD-23); experiment: Phytotoxicity, spray treatment at 1.5 to 3.0 leaf-stage (Test Example 3); details: RD-23, rice, in vivo, 4 weeks
Experimental: (§1) Carrier: 5 parts by weight of acetone
(§2) Surfactant: one part by weight of benzyloxy polyglycol ether.
(§3) Above described carrier and surfactant are mixed with one part by weight of the active compound ((a) ingredient and (b) ingredient) and the resulting preparation is then diluted with water to obtain given amount of the test drug (the formulation).
(§4) In a greenhouse, seeds of rice (var.: Nipponbare and RD23) and weeds (Echinochloa oryzicola Vasing, Echinochloa cruss-galli, Leptochloa chinensis, Cyperus difformis L., Cyperus iria L., annual broad-leaved weeds (Monochoria vaginalis Presl, Lindernia procumbens Philcox, Lindernia dubia L. Penn., Rotala indica Koehne, Elatine triandra Schk, Ammannia multiflora Roxb. and the like)) were sown in a 500 cm^2 pot filled with paddy field soil and covered with soil. Water was added to the pot (a depth of 0 cm) to be a wet condition, and each test plant was grown in the greenhouse to 1.5 to 3.0 leaf-stage, after then a prescribed, diluted solution of the formulation of each active compound and each herbicidal compound in the table were separately or simultaneously sprayed over the pots with plants. At 3 days after the treatment, the water depth of 3 cm was maintained, and 4 weeks later, herbicidal effect was then examined. In the assessment of the herbicidal effect and the phytotoxicity, 100% refers to complete death and 0% refers to no effect or no phytotoxicity.

[2] = tested on: submerged direct sown paddy (Nipponbare); experiment: as above; details: rice, in vivo, 4 weeks
Experimental: as §1, §2, §3, §4

[3] = tested on: Monochoria vaginalis Presl; experiment: Weed control, flooded paddy field, treatment at 1 leaf-stage (Test Example 1); details: 20 g ai/ha, after 4 weeks
Experimental: as §1, §2, §3
(§5) In a greenhouse, seeds or tubers of Echinochloa, Scirpus juncoides Roxburgh, Monochoria vaginalis Presl, annual broad-leaved weeds (Lindernia procumbens Philcox, Lindernia dubia L. Penn., Rotala indica Koehne, Elatine triandra Schk, Ammannia multiflora Roxb.), Cyperus serotinus Rottboel and Sagittaria pygmaea Miq. were inoculated in a 500 cm^2 pot filled with paddy field soil. After 2 leaf-stage of rice were transplanted, water was poured to a depth of about 3 cm. At 1.0 leaf-stage of Echinochloa oryzicola Vasing, a prescribed, diluted solution of the formulation of each active compound and each herbicidal compound in the table was separately or simultaneously applied to the surface of water. After the treatment, the water depth of 3 cm was maintained, and herbicidal effect was examined after 4 weeks. In the assessment of the herbicidal effect and the phytotoxicity, 100% refers to complete death and 0% refers to no effect or no phytotoxicity.

[4] = tested on: annual broad-leaved weeds; experiment: as above; details: 20 g ai/ha, after 4 weeks
Experimental: as §1, §2, §3, §5

Sagittaria pygmaea Miq. [5] = experiment: as above; details: 20 g ai/ha, after 4 weeks
Experimental: as §1, §2, §3, §5

[6] = tested on: Scirpus juncoides Roxburgh; experiment: as above; details: 20 g ai/ha, after 4 weeks
Experimental: as §1, §2, §3, §5

[7] = tested on: Cyperus serotinus Rottboel; experiment: as above; details: 20 g ai/ha, after 4 weeks
Experimental: as §1, §2, §3, §5

Echinochloa [8] = experiment: as above; details: 20 g ai/ha, after 4 weeks
Experimental: as §1, §2, §3, §5

[9] = tested on: Monochoria vaginalis Presl; experiment: Weed control by spray treatment at 1.5 to 3.0 leaf-stage (Test Example 3); details: 20 g ai/ha; spray at 1.5 to 3.0 leaf-stage; 4 weeks later
Experimental: as §1, §2, §3, §4

Leptochloa chinensis = experiment: as above; details: 20 g ai/ha; spray at 1.5 to 3.0 leaf-stage; 4 weeks later
Experimental: as §1, §2, §3, §4

Echinochloa cruss-galli = experiment: as above; details: 20 g ai/ha; spray at 1.5 to 3.0 leaf-stage; 4 weeks later
Experimental: as §1, §2, §3, §4

Cyperus difformis L. = experiment: as above; details: 20 g ai/ha; spray at 1.5 to 3.0 leaf-stage; 4 weeks later
Experimental: as §1, §2, §3, §4

[10] = tested on: annual broad-leaved weeds; experiment: as above; details: 20 g ai/ha; spray at 1.5 to 3.0 leaf-stage; 4 weeks later
Experimental: as §1, §2, §3, §4

[11] = tested on: Echinochloa oryzicola Vasing; experiment: as above; details: 20 g ai/ha; spray at 1.5 to 3.0 leaf-stage; 4 weeks later
Experimental: as §1, §2, §3, §4

Cyperus iria L. = experiment: as above; details: 20 g ai/ha; spray at 1.5 to 3.0 leaf-stage; 4 weeks later
Experimental: as §1, §2, §3, §4

[12] = tested on: Monochoria vaginalis Presl; experiment: Weed control, flooded paddy field, treatment at 3 leaf-stage (Test Example 2); details: 20 g ai/ha, after 4 weeks
Experimental: as §1, §2, §3
as §5, with “Echinochloa, Cyperus difformis L.,” for “Echinochloa,”, “3.0” for “1.0”, “Echinochloa,” for “Echinochloa oryzicola Vasing,”

[13] = tested on: annual broad-leaved weeds; experiment: as above; details: 20 g ai/ha, after 4 weeks
Experimental: as §1, §2, §3
as §5, with “Echinochloa, Cyperus difformis L.,” for “Echinochloa,”, “3.0” for “1.0”, “Echinochloa,” for “Echinochloa oryzicola Vasing,”

Sagittaria pygmaea Miq. [14] = experiment: as above; details: 20 g ai/ha, after 4 weeks
Experimental: as §1, §2, §3
as §5, with “Echinochloa, Cyperus difformis L.,” for “Echinochloa,”, “3.0” for “1.0”, “Echinochloa,” for “Echinochloa oryzicola Vasing,”

[15] = tested on: Scirpus juncoides Roxburgh; experiment: as above; details: 20 g ai/ha, after 4 weeks
Experimental: as §1, §2, §3
as §5, with “Echinochloa, Cyperus difformis L.,” for “Echinochloa,”, “3.0” for “1.0”, “Echinochloa,” for “Echinochloa oryzicola Vasing,”

[16] = tested on: Cyperus serotinus Rottboel; experiment: as above; details: 20 g ai/ha, after 4 weeks
Experimental: as §1, §2, §3
as §5, with “Echinochloa, Cyperus difformis L.,” for “Echinochloa,”, “3.0” for “1.0”, “Echinochloa,” for “Echinochloa oryzicola Vasing,”

Echinochloa [17] = experiment: as above; details: 20 g ai/ha, after 4 weeks
Experimental: as §1, §2, §3
as §5, with “Echinochloa, Cyperus difformis L.,” for “Echinochloa,”, “3.0” for “1.0”, “Echinochloa,” for “Echinochloa oryzicola Vasing,”

transplanted rice [18] = experiment: Phytotoxicity, flooded paddy field, treatment at 1 leaf-stage (Test Example 1); details: rice, in vivo, 4 weeks
Experimental: as §1, §2, §3, §5

transplanted rice [19] = experiment: Phytotoxicity, flooded paddy field, treatment at 3 leaf-stage (Test Example 2); details: rice, in vivo, 4 weeks
Experimental: as §1, §2, §3
as §5, with “Echinochloa, Cyperus difformis L.,” for “Echinochloa,”, “3.0” for “1.0”, “Echinochloa,” for “Echinochloa oryzicola Vasing,”

In the case of `CCOc1ccccc1OS(=O)(=O)NC(=O)Nc1nc(OC)cc(OC)n1` [(b-5), ethoxysulfuron], the “Phytotoxicity (%) ORYSW*^2” value [1] is reported as 10%, the “Phytotoxicity (%) ORYSW*^1” value [2] is reported as 10% and the “Herbicidal effect (%) MOOVP” value [3] is reported as 95%. For the same molecule, the “Herbicidal effect (%) BBBBB” value [4] was 95%, the “Herbicidal effect (%) SAGPY” value (Sagittaria pygmaea Miq. [5]) was 90% and the “Herbicidal effect (%) SCPSS” value [6] was 95%. For the same molecule, the “Herbicidal effect (%) CYPSEE” value [7] was 60%, the “Herbicidal effect (%) ECHSS” value (Echinochloa [8]) was 30% and the “Herbicidal effect (%) MOOVP” value [9] was 95%. The “Herbicidal effect (%) LEFCH” value (Leptochloa chinensis) was 15%, the “Herbicidal effect (%) ECHCG” value (Echinochloa cruss-galli) was 10% and the “Herbicidal effect (%) CYPDI” value (Cyperus difformis L.) was 100%. The “Herbicidal effect (%) BBBBB” value [10] was 90%, the “Herbicidal effect (%) ECHOR” value [11] was 15% and the “Herbicidal effect (%) CYPIR” value (Cyperus iria L.) was 100%. The “Herbicidal effect (%) MOOVP” value [12] was 80%, the “Herbicidal effect (%) BBBBB” value [13] was 60% and the “Herbicidal effect (%) SAGPY” value (Sagittaria pygmaea Miq. [14]) was 60%. For the same molecule, the “Herbicidal effect (%) SCPSS” value [15] was 90%, the “Herbicidal effect (%) CYPSEE” value [16] was 20% and the “Herbicidal effect (%) ECHSS” value (Echinochloa [17]) was 50%. The “Phytotoxicity (%) ORYSP” value (transplanted rice [18]) was 10% and the “Phytotoxicity (%) ORYSP” value (transplanted rice [19]) was 0%.
